Assay results published in ChEMBL document CHEMBL1909046, “DrugMatrix in vitro pharmacology data”.

Legend:
[1] = DRUGMATRIX: Glutamate, NMDA, Agonism radioligand binding (ligand: [3H] CGP-39653); type: cell membranes, Rattus norvegicus, Wistar, Cerebral cortex, Membrane; settings: Not Active = under 50% inhibition at 10 µM
[2] = DRUGMATRIX: Interleukin IL-1 radioligand binding (ligand: [125I] interleukin 1beta); type: cell membranes, Membrane; settings: nih3t3; Not Active = under 50% inhibition at 10 µM
[3] = target: T1, Neuropeptide Y receptor type 2 (Homo sapiens, UniProt P49146); type: cell membranes, Membrane; settings: kan-ts; further: in other assays of this panel Not Active means under 50% inhibition at 10 µM
T1 sequence (P49146 whole entry): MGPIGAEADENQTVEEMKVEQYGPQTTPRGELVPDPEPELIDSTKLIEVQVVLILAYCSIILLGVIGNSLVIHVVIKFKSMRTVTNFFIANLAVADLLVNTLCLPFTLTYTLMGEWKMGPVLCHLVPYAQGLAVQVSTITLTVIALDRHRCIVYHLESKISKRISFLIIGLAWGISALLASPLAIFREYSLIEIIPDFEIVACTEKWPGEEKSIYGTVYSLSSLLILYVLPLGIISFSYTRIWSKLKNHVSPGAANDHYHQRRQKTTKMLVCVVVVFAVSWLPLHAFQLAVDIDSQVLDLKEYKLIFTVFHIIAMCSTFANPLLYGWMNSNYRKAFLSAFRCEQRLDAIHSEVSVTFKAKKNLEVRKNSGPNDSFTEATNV

[4] = target: Beta-3 adrenergic receptor (Homo sapiens, UniProt P13945); assay: DRUGMATRIX: Adrenergic beta3 radioligand binding (ligand: [125I] Cyanopindolol); type: cell membranes, HEK293, Membrane; settings: Not Active = under 50% inhibition at 10 µM
[5] = target: Tyrosine-protein kinase Lck (Homo sapiens, UniProt P06239); assay: DRUGMATRIX: Protein Tyrosine Kinase, LCK enzyme inhibition (substrate: Poly(Glu:Tyr)); type: cell-based, Insect cells; settings: insect cells; Not Active = under 50% inhibition at 10 µM
[6] = DRUGMATRIX: Glutamate, NMDA, Phencyclidine radioligand binding (ligand: [3H] TCP); type: cell membranes, Rattus norvegicus, Wistar, Cerebral cortex, Membrane; settings: Not Active = under 50% inhibition at 10 µM

Chain of Beta-3 adrenergic receptor (P13945 whole entry): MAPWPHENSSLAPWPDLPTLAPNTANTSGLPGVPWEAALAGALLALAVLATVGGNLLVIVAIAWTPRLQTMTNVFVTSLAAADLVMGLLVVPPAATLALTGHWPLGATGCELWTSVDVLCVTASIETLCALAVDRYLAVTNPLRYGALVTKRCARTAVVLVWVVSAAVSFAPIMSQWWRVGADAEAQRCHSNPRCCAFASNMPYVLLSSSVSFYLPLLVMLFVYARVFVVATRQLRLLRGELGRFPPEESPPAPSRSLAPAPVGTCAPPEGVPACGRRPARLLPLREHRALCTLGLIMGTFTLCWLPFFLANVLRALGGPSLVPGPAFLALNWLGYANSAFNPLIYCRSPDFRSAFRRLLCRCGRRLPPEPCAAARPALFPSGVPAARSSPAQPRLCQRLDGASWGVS
Chain of Tyrosine-protein kinase Lck (P06239 whole entry): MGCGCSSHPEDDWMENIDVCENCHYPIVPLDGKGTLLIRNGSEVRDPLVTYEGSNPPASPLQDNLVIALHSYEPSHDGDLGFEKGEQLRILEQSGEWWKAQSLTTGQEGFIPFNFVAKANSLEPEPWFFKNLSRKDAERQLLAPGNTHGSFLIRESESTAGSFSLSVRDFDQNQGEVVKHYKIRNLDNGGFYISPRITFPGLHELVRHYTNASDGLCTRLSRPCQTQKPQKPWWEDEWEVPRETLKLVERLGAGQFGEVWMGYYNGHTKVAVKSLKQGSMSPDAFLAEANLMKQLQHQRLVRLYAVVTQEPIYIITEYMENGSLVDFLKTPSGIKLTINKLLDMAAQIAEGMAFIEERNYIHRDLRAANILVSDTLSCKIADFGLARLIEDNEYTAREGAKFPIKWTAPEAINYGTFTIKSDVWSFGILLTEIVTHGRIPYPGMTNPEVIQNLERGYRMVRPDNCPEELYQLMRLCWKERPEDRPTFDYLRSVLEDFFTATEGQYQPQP

| Structure (SMILES) | IC50 [1] | Ki [1] | IC50 [2] | Ki [2] | IC50 [3] | IC50 ([4]; hek293) | IC50 [5] | IC50 [6] | Ki [6] | IC50 ([4]; read-out: IC50) | Ki ([4]; read-out: Ki) |
| --- | --- | --- | --- | --- | --- | --- | --- | --- | --- | --- | --- |
| CN1CCN(C(c2ccccc2)c2ccccc2)CC1 [CYCLIZINE] | Not Active | Not Active | Not Active | Not Active | Not Active | Not Active | Not Active | Not Active | Not Active | – | – |
| CN1C[C@@H]2C[C@H]1CN2c1cc2c(cc1F)c(=O)c(C(=O)O)cn2C1CC1 [DANOFLOXACIN] | Not Active | Not Active | Not Active | Not Active | Not Active | Not Active | Not Active | Not Active | Not Active | – | – |
| COc1cccc2c1C(=O)c1c(O)c3c(c(O)c1C2=O)C[C@@](O)(C(C)=O)C[C@@H]3O[C@H]1C[C@H](N)[C@H](O)[C@H](C)O1 [DAUNORUBICIN] | Not Active | Not Active | Not Active | Not Active | Not Active | Not Active | Not Active | Not Active | Not Active | – | – |
| O=C(O)c1cc(-c2ccc(F)cc2F)ccc1O [DIFLUNISAL] | Not Active | Not Active | Not Active | Not Active | Not Active | Not Active | Not Active | Not Active | Not Active | – | – |
| C[S+](C)[O-] [DIMETHYL SULFOXIDE] | Not Active | Not Active | Not Active | Not Active | Not Active | Not Active | Not Active | Not Active | Not Active | – | – |
| CC1=NN(c2ccccc2)C(=O)C1 [EDARAVONE] | Not Active | Not Active | Not Active | Not Active | Not Active | Not Active | Not Active | Not Active | Not Active | – | – |
| CC(C)C[C@H]1C(=O)N2CCC[C@H]2[C@]2(O)O[C@](NC(=O)[C@@H]3C=C4c5cccc6[nH]cc(c56)C[C@H]4N(C)C3)(C(C)C)C(=O)N12 [ERGOCRYPTINE] | Not Active | Not Active | Not Active | Not Active | Not Active | – | Not Active | Not Active | Not Active | 2500 nM | 1870 nM |
| C[C@]12CC[C@@H]3c4ccc(O)cc4CC[C@H]3[C@@H]1C[C@@H](O)[C@@H]2O [ESTRIOL] | Not Active | Not Active | Not Active | Not Active | Not Active | Not Active | Not Active | Not Active | Not Active | – | – |
| C#C[C@]1(O)CC[C@H]2[C@@H]3CCC4=CC(=O)CC[C@]4(C)[C@H]3CC[C@@]21C [ETHISTERONE] | Not Active | Not Active | Not Active | Not Active | Not Active | Not Active | Not Active | Not Active | Not Active | – | – |
| CC(O)(P(=O)(O)O)P(=O)(O)O [ETIDRONIC ACID] | Not Active | Not Active | Not Active | Not Active | Not Active | Not Active | Not Active | Not Active | Not Active | – | – |
| CC(C)(C(=O)O)c1ccc(C(O)CCCN2CCC(C(O)(c3ccccc3)c3ccccc3)CC2)cc1 (stereo not drawn) [FEXOFENADINE] | Not Active | Not Active | Not Active | Not Active | Not Active | Not Active | Not Active | Not Active | Not Active | – | – |
| CN1CCN(c2c(F)cc3c(=O)c(C(=O)O)cn(CCF)c3c2F)CC1 [FLEROXACIN] | Not Active | Not Active | Not Active | Not Active | Not Active | Not Active | Not Active | Not Active | Not Active | – | – |
| O=c1[nH]c(=O)n([C@H]2C[C@H](O)[C@@H](CO)O2)cc1F [FLOXURIDINE] | Not Active | Not Active | Not Active | Not Active | Not Active | Not Active | Not Active | Not Active | Not Active | – | – |
| COC(=O)Nc1nc2cc(C(=O)c3ccc(F)cc3)ccc2[nH]1 [FLUBENDAZOLE] | Not Active | Not Active | Not Active | Not Active | Not Active | Not Active | Not Active | Not Active | Not Active | – | – |
| CC(=O)OCC(=O)[C@@]1(O)CC[C@H]2[C@@H]3CCC4=CC(=O)CC[C@]4(C)[C@@]3(F)[C@@H](O)C[C@@]21C [FLUDROCORTISONE ACETATE] | Not Active | Not Active | Not Active | Not Active | Not Active | Not Active | Not Active | Not Active | Not Active | – | – |
| CCOC(=O)c1ncn2c1CN(C)C(=O)c1cc(F)ccc1-2 [FLUMAZENIL] | Not Active | Not Active | Not Active | Not Active | Not Active | Not Active | Not Active | Not Active | Not Active | – | – |
| CC(=O)OCC(=O)[C@@]12OC(C)(C)O[C@@H]1C[C@H]1[C@@H]3C[C@H](F)C4=CC(=O)C=C[C@]4(C)[C@@]3(F)[C@@H](O)C[C@@]12C [FLUOCINONIDE] | Not Active | Not Active | Not Active | Not Active | Not Active | Not Active | Not Active | Not Active | Not Active | – | – |
| O=C(O)P(=O)(O)O [FOSCARNET] | Not Active | Not Active | Not Active | Not Active | Not Active | Not Active | Not Active | Not Active | Not Active | – | – |
| Cc1ccc(C)c(OCCCC(C)(C)C(=O)O)c1 [GEMFIBROZIL] | Not Active | Not Active | Not Active | Not Active | Not Active | Not Active | Not Active | Not Active | Not Active | – | – |
| O=c1c(-c2ccc(O)cc2)coc2cc(O)cc(O)c12 [GENISTEIN] | Not Active | Not Active | Not Active | Not Active | Not Active | Not Active | Not Active | Not Active | Not Active | – | – |
| CCC1=C(C)CN(C(=O)NCCc2ccc(S(=O)(=O)NC(=O)N[C@H]3CC[C@H](C)CC3)cc2)C1=O [GLIMEPIRIDE] | Not Active | Not Active | Not Active | Not Active | Not Active | Not Active | Not Active | Not Active | Not Active | – | – |
| Nc1cc(-c2ccncc2)c[nH]c1=O [INAMRINONE] | Not Active | Not Active | Not Active | Not Active | Not Active | Not Active | Not Active | Not Active | Not Active | – | – |
| CCCCC1=NC2(CCCC2)C(=O)N1Cc1ccc(-c2ccccc2-c2nnn[nH]2)cc1 [IRBESARTAN] | Not Active | Not Active | Not Active | Not Active | Not Active | Not Active | Not Active | Not Active | Not Active | – | – |
